Assay results from publication PMC7914897, “Cytotoxic Potential of a-Azepano- and 3-Amino-3,4-SeCo-Triterpenoids” (International Journal of Molecular Sciences, 2021).

Experiments:
Details in all cases: Homo sapiens
[1] = tested on: NCI/ADR-RES (Ovarian cancer); assay: NCI-60 screen (SRB, 48 h)
[2] = tested on: HOP-62 (NSC lung cancer); assay: NCI-60 screen (SRB, 48 h)
[3] = tested on: NCI-H23 (NSC lung cancer); assay: NCI-60 screen (SRB, 48 h)
[4] = tested on: Colon Cancer subpanel; assay: NCI-60 screen, subpanel
[5] = tested on: OVCAR-8 (Ovarian cancer); assay: NCI-60 screen (SRB, 48 h)
[6] = tested on: NCI-H460 (NSC lung cancer); assay: NCI-60 screen (SRB, 48 h)
[7] = tested on: SK-MEL-5 (Melanoma); assay: NCI-60 screen (SRB, 48 h)
[8] = tested on: Leukemia subpanel; assay: cells
[9] = tested on: Ovarian Cancer subpanel; assay: NCI-60 screen, subpanel
[10] = tested on: MOLT-4 (Leukemia); assay: NCI-60 screen (SRB, 48 h)
[11] = tested on: HT29 (Colon cancer); assay: NCI-60 screen (SRB, 48 h)
[12] = tested on: Breast cancer subpanel; assay: NCI-60 screen, subpanel
[13] = tested on: SK-MEL-28 (Melanoma); assay: NCI-60 screen (SRB, 48 h)
[14] = tested on: DU-145 (Prostate cancer); assay: NCI-60 screen (SRB, 48 h)
[15] = tested on: MDA-MB-435 (Melanoma); assay: NCI-60 screen (SRB, 48 h); type: cell-based
[16] = tested on: OVCAR-4 (Ovarian cancer); assay: NCI-60 screen (SRB, 48 h); type: cell-based
[17] = tested on: U251 (CNS cancer); assay: NCI-60 screen (SRB, 48 h)
[18] = tested on: BT-549 (Breast cancer); assay: NCI-60 screen (SRB, 48 h); type: cell-based
[19] = tested on: SF-268 (CNS cancer); assay: NCI-60 screen (SRB, 48 h)
[20] = tested on: SF-539 (CNS cancer); assay: NCI-60 screen (SRB, 48 h)
[21] = tested on: LOX IMVI (Melanoma); assay: NCI-60 screen (SRB, 48 h); type: cell-based
[22] = tested on: HS 578T (Breast cancer); assay: NCI-60 screen (SRB, 48 h)
[23] = tested on: MDA-MB-468 (Breast cancer); assay: cells
[24] = tested on: TK-10 (Renal cancer); assay: NCI-60 screen (SRB, 48 h)
[25] = tested on: OVCAR-3 (Ovarian cancer); assay: cells

SMILES: CC1(C)CC[C@]23CC[C@]4(C)[C@H](CC[C@@H]5[C@@]6(C)CCCNC(C)(C)[C@@H]6CC[C@]54C)[C@H]2[C@H]1OC3 [Compound 7, Azepanoallobetulin]
- GI50 [1]: 1.78 µM
- IC (TGI) ([1]; 48 h, read-out: TGI): 3.59 µM
- GI50 ([2]; HOP-62): 1.91 µM
- IC (TGI) ([2]; HOP-62, 48 h, read-out: TGI): 3.75 µM
- CC50 ([2]; HOP-62, read-out: LC50): 7.34 µM
- GI50 ([3]; NCI-H23): 1.76 µM
- IC (TGI) ([3]; NCI-H23, 48 h, read-out: TGI): 3.5 µM
- CC50 ([3]; NCI-H23, read-out: LC50): 6.95 µM
- IC (TGI) ([4]; 48 h, read-out: TGI MG_MID): 3.11 µM
- GI50 ([4]; read-out: GI50 MG_MID): 1.58 µM
- CC50 ([4]; read-out: LC50 MG_MID): 6.11 µM
- GI50 ([5]; OVCAR-8): 1.87 µM
- IC (TGI) ([5]; OVCAR-8, 48 h, read-out: TGI): 3.66 µM
- GI50 ([6]; NCI-H460): 0.65 µM
- IC (TGI) ([6]; NCI-H460, 48 h, read-out: TGI): 2.2 µM
- CC50 ([6]; NCI-H460, read-out: LC50): 6.12 µM
- GI50 ([7]; SK-MEL-5): 1.69 µM
- IC (TGI) ([7]; SK-MEL-5, 48 h, read-out: TGI): 3.06 µM
- CC50 ([7]; SK-MEL-5, read-out: LC50): 5.53 µM
- IC (TGI) ([8]; 48 h, read-out: TGI MG_MID): 5.49 µM
- GI50 ([8]; read-out: GI50 MG_MID): 1.96 µM
- CC50 ([8]; read-out: LC50 MG_MID): 94.3 µM
- IC (TGI) ([9]; 48 h, read-out: TGI MG_MID): 3.99 µM
- GI50 ([9]; read-out: GI50 MG_MID): 1.86 µM
- CC50 ([9]; read-out: LC50 MG_MID): 12.3 µM
- GI50 ([10]; MOLT-4): 2.1 µM
- IC (TGI) ([10]; MOLT-4, 48 h, read-out: TGI): 5.04 µM
- CC50 ([10]; MOLT-4, read-out: LC50): 74.8 µM
- GI50 ([11]; HT-29): 1.78 µM
- IC (TGI) ([11]; HT-29, 48 h, read-out: TGI): 3.63 µM
- CC50 ([11]; HT-29, read-out: LC50): 7.42 µM
- IC (TGI) ([12]; 48 h, read-out: TGI MG_MID): 3.55 µM
- GI50 ([12]; read-out: GI50 MG_MID): 1.68 µM
- CC50 ([12]; read-out: LC50 MG_MID): 6.06 µM
- GI50 ([13]; SK-MEL-28): 1.66 µM
- IC (TGI) ([13]; SK-MEL-28, 48 h, read-out: TGI): 3.18 µM
- CC50 ([13]; SK-MEL-28, read-out: LC50): 6.07 µM
- GI50 ([14]; DU-145): 1.74 µM
- IC (TGI) ([14]; DU-145, 48 h, read-out: TGI): 3.23 µM
- CC50 ([14]; DU-145, read-out: LC50): 6 µM
- GI50 ([15]; MDA-MB-435): 1.65 µM
- IC (TGI) ([15]; MDA-MB-435, 48 h, read-out: TGI): 3.02 µM
- CC50 ([15]; MDA-MB-435, read-out: LC50 (the source's name)): 5.55 µM
- GI50 ([16]; OVCAR-4): 1.65 µM
- IC (TGI) ([16]; OVCAR-4, 48 h): 3.12 µM
- CC50 ([16]; OVCAR-4, read-out: LC50 (the source's name)): 5.88 µM
- GI50 ([17]; U-251): 1.74 µM
- IC (TGI) ([17]; U-251, 48 h, read-out: TGI): 3.23 µM
- CC50 ([17]; U-251, read-out: LC50): 5.98 µM
- GI50 ([18]; BT-549): 1.68 µM
- IC (TGI) ([18]; BT-549, 48 h): 3.24 µM
- GI50 ([19]; SF-268): 2.04 µM
- IC (TGI) ([19]; SF-268, 48 h, read-out: TGI): 5.31 µM
- CC50 ([19]; SF-268, read-out: LC50): 31.5 µM
- GI50 ([20]; SF-539): 1.64 µM
- IC (TGI) ([20]; SF-539, 48 h, read-out: TGI): 3.07 µM
- CC50 ([20]; SF-539, read-out: LC50): 5.78 µM
- IC (TGI) ([21]; 48 h): 3.08 µM
- activity at 10 µM ([21]; 48 h, 1 dose 10 µM, read-out: Growth % of the Most Sensitive Cell Lines): -94.9%
- GI50 ([21]; read-out: GI50): 1.6 µM
- GI50 [22]: 1.96 µM
- IC (TGI) ([22]; 48 h, read-out: TGI): 4.69 µM
- CC50 ([22]; read-out: LC50): 2.44 µM
- GI50 ([23]; MDA-MB-468): 1.61 µM
- IC (TGI) ([23]; MDA-MB-468, 48 h, read-out: TGI): 3.45 µM
- CC50 ([23]; MDA-MB-468, read-out: LC50): 7.39 µM
- GI50 ([24]; TK-10): 1.89 µM
- IC (TGI) ([24]; TK-10, 48 h, read-out: TGI): 3.61 µM
- CC50 ([24]; TK-10, read-out: LC50): 6.91 µM
- GI50 ([25]; OVCAR-3): 1.62 µM
- IC (TGI) ([25]; OVCAR-3, 48 h, read-out: TGI): 3.1 µM
- CC50 ([25]; OVCAR-3, read-out: LC50): 5.94 µM
